{"source": "patent US12568963B2", "about": "“Compounds and compositions for nematode treatment” (IOWA STATE UNIVERSITY RESEARCH FOUNDATION, INC., priority 2020, dated 2026)", "key": {"M. incognita": {"tested_on": "M. incognita", "assay": "RKN quick sand assay (cucumber root galling)", "format": "in vivo", "details": "15 days after infestation with 2,000 M. incognita eggs; abamectin 100 ppm drench; solvent control 24%", "method": "Deionized water, 100 ppm abamectin, and solvent were used as controls. […] To date, compounds were tested in three different experimental runs, with some compounds being tested twice and others once. A beta regression model was used to estimate the percent of galling for each treatment in each run. As with the hatching data analyses, a test of marginal means was performed to determine the estimated percent of galling in each treatment over all runs."}, "SCN eggs": {"tested_on": "SCN eggs", "assay": "SCN hatching assay (continuous and short-term exposure)", "details": "in vivo", "procedure": "Two similar assays ran synchronously. For both, approximately 300 eggs were pipetted onto 20 mm-diameter plastic microsieves and placed in a six-well plate and incubated at 25° C. in 3 mL of treatment (FIG. 1A). In a continuous exposure assay, eggs (FIG. 1B) were incubated in treatments for 15 days, and in a short-term exposure assay, eggs were incubated in treatments for one day, rinsed, then incubated in deionized water for 14 days. The number of hatched second-stage juveniles (FIG. 1B) was determined for both assays after 3, 6, 9, 12, and 15 days when the microsieves containing the eggs were moved to an empty well and fresh treatment solution was added. […] Compounds were tested over twelve different experimental runs in total, with some tested three times, others twice, and some once.\nThe number of hatched and unhatched juveniles of SCN in each treatment were subjected to an analysis with a quasibinomial generalized linear model to estimate the percent hatching for each treatment in each individual experimental run. Then, a test of marginal means was done to determine the estimated percent hatching in each treatment over all runs. […] Analysis were performed on four different treatment groups: continuous 100 ppm, short term 100 ppm, continuous 10 ppm, and short term 10 ppm.\nBecause of the complexity of the experimental design and the large variation in hatch rates between different testing blocks, as well as the long duration over which testing has occurred, the statistical analysis is not straight-forward. First, within each block bi, the mean μi hatch rate (in percent) in the solvent control is calculated (in blocks with both short-term and continuous exposure, these two testing methods are analyzed independently). For each treatment hatch rate xj in block bi, a “hatching score” hij is the calculated as\nThe arcsine transformation is used to account for the fact that calculating the ratio of hatching is subject to non-linear effects. A general linear model is then used to account for additional block effects, and Dunnett's adjustment is used as the multiple comparison procedure to control the familywise error rate, as all treatments are compared to the solvent control. […] These controls were not used in the calculation of significance other than as controls common to each block in the unbalanced incomplete block design experiment.\nThe estimate column contains an estimate of the difference in hatch rate modulation between the solvent control and the treatment. This is estimated as a percentage hatch rate of the control. For reliability of the magnitude of the effect, more than one block is needed. Due to the high variation in solvent control hatch rates between blocks, some percentage modulations may fall outside the expected range (e.g., below −100%).\nDue to the arctangent/tangent conversions, the standard errors of the mean (column SE) are very rough estimates of the standard error. However, the p value column contains the actual p-values."}, "SCN": {"tested_on": "SCN", "details": "for SCN Population Densities 34 DAP / SCN Population Densities 64 DAP / SCN Population Densities harvest / Biomass at harvest, total / Biomass at harvest, seed: susceptible soybean; for SCN Population Densities 34 DAP: 34 days after planting; for SCN Population Densities 64 DAP: 64 days after planting; for Biomass at harvest, total: dry weight of all plants per microplot; for Biomass at harvest, seed: seed weight per microplot", "from_the_text": "Microplots were constructed by inserting 1-m-diameter by 0.25-m-tall circles of plastic drainage pipe into the soil in a field on a university-owned research farm located 10 km (6 miles) due west of Ames, IA. The field was not infested with SCN prior to being infested for the experiment.\nThe soil in the top 20 cm of each microplot was loosened, turned over, and artificially infested with approximately 570,000 SCN eggs contained within cysts in 1 liter of soil from greenhouse cultures. The SCN inoculum was applied in a band across the middle of the microplot (FIG. 5A), then 1.65 L of treatment solution were applied over the infested soil. […] Two different control treatments consisted of microplots receiving 1.65 L of autoclaved, deionized water and microplots receiving 1.65 L of the solvent used to dilute the compounds. The SCN-infested soil inoculum and applied liquid treatment were rototilled into the soil in each microplot, then 40 seeds of the SCN-susceptible variety “Williams 82” were planted in a single, central row within each microplot (FIG. 5B). Similarly, seeds of the SCN-resistant variety “Jack” were planted in microplots infested with SCN inoculum and treated with water as a third control treatment. There were four replications of each of the six treatments arranged in a randomized complete block design. Microplots were spaced 1 m apart in rows separated by 3 m to avoid cross contamination among microplots (FIG. 5F). Plants were grown for the entire 2020 growing season (FIGS. 5C through 5H).\nThe total number of plants growing in each microplot were counted (i.e., a “stand count”) 34 days after planting. A total of five soil cores, 2 cm in diameter and 15 to 20 cm deep, were collected from the root zone on either side of the row of soybean plants in each microplot 34 days after planting, 64 days after planting, and when the plants were removed from the microplots to determine the SCN population densities. SCN requires approximately 30 days to complete a single generation. […] SCN cysts (dead females full of eggs) were extracted from the soil samples using a wet sieving method, and eggs were released from the recovered cysts by crushing cysts with a motorized rubber stopper. Recovered eggs were stained with acid fuchsin and counted under a microscope to determine their number per 100 cm^3 of soil.\nThe stems of soybean plants in each microplot were cut at the soil line, and all plants from each microplot were placed in large paper bags and stored in an unheated shed until they were further processed. The dry weight of all plants in each microplot was determined (total plant biomass at harvest), and then all plants from each microplot were fed through a plot combine to collect and weigh the seeds (seed biomass)."}, "[1]": {"assay": "Solubility in the solvent system / water", "format": "physicochemical", "method": "Several tested compounds were obtained commercially while others were synthesized from simple starting materials (see Example 1, supra). Compounds were dissolved in a solvent containing 0.08% ethanol, 0.08% TRITON™ X-100, and nano-purified water and were tested at 10 and 100 ppm.\nAlmost all compounds were tested at 100 ppm, provided they were sufficiently soluble in the solvent system at this concentration."}}, "note": "Values joined by “and” are separate entries in the source; they are usually repeats but may differ in a detail not shown here. Equal values may be shown once. Read-outs that look alike come from different tables or passages of the source. Marks after values point to notes of the source that are not given here."}
{"molecule": "abamectin", "values": [{"measurement": "percentage galling of cucumber roots", "setting": "M. incognita", "value": 0, "unit": "%"}]}
{"molecule": "CC(=O)C=Cc1ccccc1", "note": "[methyl styryl ketone]", "values": [{"measurement": "estimate (difference in hatch rate modulation between solvent control and treatment, as percentage hatch rate of the control)", "setting": "SCN eggs", "value": "−75.4% and −85%"}]}
{"molecule": "O=S(=O)([O-])[O-].[Zn+2]", "note": "[zinc sulfate, reference compound]", "values": [{"measurement": "estimate (difference in hatch rate modulation between solvent control and treatment, as percentage hatch rate of the control)", "setting": "SCN eggs", "value": "54.7% and 54.9%"}]}
{"molecule": "Cc1ccc(C=C[N+](=O)[O-])cc1", "note": "[4-M-BNS, 4-methyl beta-nitrostyrene]", "values": [{"measurement": "SCN Population Densities 34 DAP", "setting": "SCN; 100 ppm solution", "value": "5,800 # eggs per 100 cm^3 soil"}, {"measurement": "SCN Population Densities 64 DAP", "setting": "SCN; 100 ppm solution", "value": "7,400 # eggs per 100 cm^3 soil"}, {"measurement": "SCN Population Densities harvest", "setting": "SCN; 100 ppm solution, at harvest", "value": "9,800 # eggs per 100 cm^3 soil"}, {"measurement": "Biomass at harvest, total", "setting": "SCN; 100 ppm solution", "value": 654, "unit": "g"}, {"measurement": "Biomass at harvest, seed", "setting": "SCN; 100 ppm solution", "value": 322, "unit": "g"}, {"measurement": "seed weights (analogous to grain yield) versus susceptible/water treatment", "setting": "SCN; in vivo", "value": "significantly greater"}, {"measurement": "soil SCN egg population densities 64 days after planting versus susceptible/water treatment", "setting": "SCN; in vivo", "value": "significantly lower"}]}
{"molecule": "O=CC(Br)=Cc1ccccc1", "note": "[a-bromocinnamaldehyde]", "values": [{"measurement": "solubility in water", "setting": "[1]", "value": "low solubility"}]}
{"molecule": "O=C(/C=C/c1ccc(Cl)cc1)C1CC1", "note": "[JSK3087, 4-Chlorostyryl Cyclopropyl Ketone]", "values": [{"measurement": "soil SCN egg population densities 64 days after planting versus susceptible/water treatment", "setting": "SCN; 100 ppm solution, LSD alpha = 0.10", "value": "significantly lower"}, {"measurement": "SCN Population Densities 34 DAP", "setting": "SCN; 100 ppm solution", "value": "7,275 # eggs per 100 cm^3 soil"}, {"measurement": "SCN Population Densities 64 DAP", "setting": "SCN; 100 ppm solution", "value": "4,700 # eggs per 100 cm^3 soil"}, {"measurement": "SCN Population Densities harvest", "setting": "SCN; 100 ppm solution, at harvest", "value": "6,400 # eggs per 100 cm^3 soil"}, {"measurement": "Biomass at harvest, total", "setting": "SCN; 100 ppm solution", "value": 668, "unit": "g"}, {"measurement": "Biomass at harvest, seed", "setting": "SCN; 100 ppm solution", "value": 327, "unit": "g"}, {"measurement": "seed weights (analogous to grain yield) versus susceptible/water treatment", "setting": "SCN; at harvest", "value": "significantly greater"}]}
{"molecule": "N#CC=Cc1ccccc1", "note": "[cinnamonitrile]", "values": [{"measurement": "estimate (difference in hatch rate modulation between solvent control and treatment, as percentage hatch rate of the control)", "setting": "SCN eggs", "value": "−53.8", "unit": "%"}]}
{"molecule": "COc1cc(/C=C/C=O)ccc1O", "note": "[4H3MC]", "values": [{"measurement": "estimate (difference in hatch rate modulation between solvent control and treatment, as percentage hatch rate of the control)", "setting": "SCN eggs", "value": "−55.3", "unit": "%"}]}
{"molecule": "C(=C\\C1SCCS1)/c1ccccc1", "note": "[JSK3011]", "values": [{"measurement": "solubility in water", "setting": "[1]; not sufficiently soluble at 100 ppm in solvent system, only tested at 10 ppm", "value": "low solubility"}]}
